In patent US7041700B2, “Substituted benzopyran derivatives against arrhythmia” (Nissan Chemical Industries, Ltd., priority 2001, dated 2006):

How the values were obtained:
[1] = test system: Atrium; test: Effects on the effective refractory period, atrium (anesthetized beagles, vagal nerve stimulation, S1-S2 extrastimulus); assay type: in vivo; settings: 0.3 mg/kg intravenously, from 5 min after administration, basic cycle length 300 msec, bilateral vagal nerve stimulation, ERP after minus before drug
Procedure: (§1) Effects on the Effective Refractory Period
(§2) Beagles were anesthetized with pentobarbital sodium and thoracotomy was done along the median line under a respirator and the incision was made on the pericardium to expose the heart. ECG was recorded using bipolar electrodes attached to the surface of the right atrial free wall, right atrial auricle, and right ventricular free wall. The vagal nerves were stimulated using an electrostimulation device with Nichrome wires inserted into the vagal nerves in the neck bilaterally. The conditions for electrostimulation to the vagal nerves were set such that the RR intervals on ECG were prolonged by about 100 msec compared with those before the stimulation was started.
(§3) Atrial and ventricular effective refractory periods were determined by S1-S2 extrastimulus technique at basic cycle length of 300 msec during bilateral vagal nerve stimulation, using programmable electric stimulator. A train of 10 basic stimuli (S1) was followed by a premature extrastimulus (S2) at 2 times diastolic threshold.
(§4) For evaluation of drug effects, the atrial and ventricular effective refractory periods were determined before drug administration, then respective compound was administrated intravenously at the dose of 0.3 mg/kg, and the atrial and ventricular effective refactory periods were determined from 5 min after the administration.
(§5) The results were shown as the prolongation time on the atrial and ventricular effective refractory periods, i.e. [effective refractory period after drug administration]−[effective refactory period before drug administration] (msec).

[2] = test system: Ventricle; test: Effects on the effective refractory period, ventricle (anesthetized beagles, vagal nerve stimulation, S1-S2 extrastimulus); assay type: in vivo; settings: 0.3 mg/kg intravenously, from 5 min after administration, basic cycle length 300 msec, bilateral vagal nerve stimulation, ERP after minus before drug
Procedure: as §1, §2, §3, §4, §5

Row | SMILES | prolongation time on the effective refractory period (msec) Atrium [1] [ms] | prolongation time on the effective refractory period (msec) Ventricle [2] [ms]
1 | Cc1ccc2c(c1)[C@H](NCCc1ccc(Cl)cc1)[C@@H](O)C(C)(C)O2 [compound 2] | 23 | 4
2 | CC1(C)Oc2cc([N+](=O)[O-])ccc2[C@H](NCCc2ccccc2)[C@H]1O [compound 6] | 36 | 9
3 | CC1(C)Oc2ccc(C(N)=O)cc2[C@H](NCCc2ccc(F)cc2)[C@H]1O [compound 4] | 23 | -10
4 | CC1(C)Oc2ccc(C(N)=O)cc2[C@H](NCCc2ccccc2)[C@H]1O [compound 3] | 21 | 4
